Data from patent US20260008746A1, “CATIONIC LIPID COMPOUND WITH HIGH EFFICIENCY, LOW TOXICITY AND STABLE EXPRESSION, AND COMPOSITION COMPRISNG SAME” (HANGZHOU TIANLONG PHARMACEUTICAL CO., LTD, priority 2023, published 2026).

Legend:
293T cells [1] = assay: Fluorescent detection of Fluc-mRNA (cell transfection efficiency of LNP formulations); type: cell-based; details: for Relative light unit (RLU): LNP formulation containing 0.3 μg Fluc-mRNA, 96-well plate, 24 hours; for Multiples (YK-107): RLU of YK-107 / RLU of named substance; for fluorescence absorption value, times that of HHMA: RLU of named substance / RLU of HHMA; for fluorescence absorption value, times that of Lipofectamine 3000: RLU of named substance / RLU of Lipofectamine 3000; for Ratio relative to SM-102: RLU of named substance / RLU of SM-102; for Fluc-mRNA expression signal intensity, times that of compound 21: RLU of named substance / RLU of compound 21; for fluorescence absorption value, times that of compound 23: RLU of named substance / RLU of compound 23; for difference from SM-102 in Fluc-mRNA fluorescence (GraphPad Prism analysis): statistical comparison with SM-102; for Multiples (YK-101): RLU of YK-101 / RLU of named substance; for Multiples (YK-108): RLU of YK-108 / RLU of named substance
Description: (§1) Cell recovery and passage: 293T cells were recovered, cultured in a culture dish, and passaged to the required number of cells.
(§2) Seeding plate: The cells in the culture dish were digested and counted. Cells were spread in a 96-well plate at 10,000 cells per well and in a 12-well plate at 150,000 cells per well. Cells were cultured overnight until the cells adhered to the wall.
Cell recovery and passage: the method was the same as in Example 3.
Seeding plate: the method was the same as in Example 3.
An LNP formulation containing 0.3 μg of Fluc-mRNA (the carrier components of the LNP formulation were cationic lipid, neutral lipid, structured lipid and polymer-conjugated lipid with a molar ratio of 49:10:39.5:1.5, wherein the cationic lipid was listed in Table 1) was added to the cell culture medium of a 96-well plate, and further incubated for 24 hours. The corresponding reagent was added according to the instructions of the Gaussia Luciferase Assay Kit, and the fluorescence expression intensity of each well was detected by an IVIS fluorescence detection system. This test verified the transfection efficiencies of LNP formulations in cells, see Tables 3-6 for specific test results.

293T cells [2] = assay: Cell survival rate determination (CCK-8); type: cell-based; details: for Cell survival rate (%): LNP formulation containing 1.5 μg Fluc-mRNA, 24 hours, CCK-8, absorbance at 450 nm; for cell survival rate lower than that of YK-101: cell survival rate of YK-101 minus that of named substance; for cell survival rate lower than that of YK-107: cell survival rate of YK-107 minus that of named substance; for cell survival rate lower than that of YK-108: cell survival rate of YK-108 minus that of named substance
Description: as §1, §2
An LNP formulation containing 1.5 μg of Fluc-mRNA (the cater component of the LNP formulation were cationic lipid, neutral lipid, structured lipid and polymer-conjugated lipid with a molar ratio of 49: 10: 39.5: 1.5, wherein the cationic lipid was listed in Table 1) and the formulation of Lipofectamine 3000 were added to the cell culture medium of a 96-well plate, and further cultivated for 24 hours. 10 μL of CCK-8 solution was then added to each well, and the culture plate was incubated in an incubator for 1 hour. The absorbance at 450 nm was measured by a microplate reader.

[3] = Determination of particle size and polydispersity index (PDI) of lipid nanoparticles by dynamic light scattering; type: physicochemical; details: LNP formulation of named cationic lipid/DSPC/cholesterol/DMG-PEG2000 49:10:39.5:1.5; for Particle size (nm): 90° scattering angle, 25° C
Description: The cationic lipids listed in Table 1 were dissolved in ethanol with DSPC (AVT (Shanghai) Pharmaceutical Technology Co., Ltd.), cholesterol (AVT (Shanghai) Pharmaceutical Technology Co., Ltd.) and DMG-PEG2000 according to a molar ratio of 49:10:39.5:1.5, respectively, to prepare lipid solution in ethanol. The lipid solution in ethanol was quickly added to citrate buffer (pH=4 to 5) by ethanol injection method, and vortexed for 30 s for later use. eGFP-mRNA (from Shanghai Biohub International Trade Co., Ltd) or Fluc-mRNA (from Shanghai Biohub International Trade Co., Ltd) was diluted in citrate buffer (pH=4 to 5) to give an aqueous mRNA solution. A certain volume of liposome solution and mRNA aqueous solution were used to prepare liposomes at a weight ratio of total lipids to mRNA of 15:1. The mixtures were sonicated at 25° C. for 15 min (with an ultrasonic frequency of 40 kHz and an ultrasonic power of 800 W). The resulting liposomes were diluted to 10 times volume with PBS, and then ultrafiltered with a 300 KDa ultrafiltration tube to remove ethanol. Then the volume was fixed to a certain volume with PBS to give an LNP formulation encapsulating eGFP-mRNA or Fluc-mRNA using cationic lipid/DSPC/cholesterol/DMG-PEG2000 (49:10:39.5:1.5 in molar percentage).
The particle size and polydispersity index (PDI) were determined by dynamic light scattering using Malvern laser particle size analyzer.
10 μL of the liposome solution was weighed, diluted to 1 mL with RNase-free deionized water, and added to the sample pool. Each sample was measured in triplicate. The measurement conditions were: 90° scattering angle, and 25° C.

SMILES | PDI(%) [3] | Particle size (nm) [3] | Relative light unit (RLU) (293T cells [1]) | Multiples (YK-107) (293T cells [1]) | fluorescence absorption value, times that of HHMA (293T cells [1]) | fluorescence absorption value, times that of Lipofectamine 3000 (293T cells [1]) | Ratio relative to SM-102 (293T cells [1]) | Fluc-mRNA expression signal intensity, times that of compound 21 (293T cells [1]) | fluorescence absorption value, times that of compound 23 (293T cells [1]) | difference from SM-102 in Fluc-mRNA fluorescence (GraphPad Prism analysis) (293T cells [1]) | Cell survival rate (%) (293T cells [2]) | cell survival rate lower than that of YK-101 (293T cells [2]) | cell survival rate lower than that of YK-107 (293T cells [2]) | cell survival rate lower than that of YK-108 (293T cells [2]) | cell transfection activity, times that of YK-109 (293T cells [1]) | Multiples (YK-101) (293T cells [1]) | Multiples (YK-108) (293T cells [1]) | cell transfection efficiency, times that of YK-121 (293T cells [1])
CCCCCCCCCCOC(=O)CCCN(CCCCCC(=O)OCCC(CCCCCC)CCCCCC)CCOCCOCCO [YK-121, 3-hexylnonyl 6-(4-(decyloxy)-4-oxobutyl)(2-(2-(2-hydroxyethoxy)ethoxy-ethyl)amino)hexanoate] | 25.1% | 192 nm | 427603 RLU | 52.29 | 0.21 times | 0.40 times | 0.28 | 0.31 times | 0.33 times | significant difference | 73.11% | 17.01% | 17.34% | 16.75% | – | – | – | –
CCCCCCCCCCOC(=O)CCCN(CCCCCC(=O)OCCC(CCCCCC)CCCCCC)CCOC(=O)CCCN(C)C [YK-125] | 26.4% | 220 nm | 169824 RLU | 131.67 | 0.08 times | 0.16 times | 0.11 | 0.12 times | 0.13 times | significant difference | 35.39% | 54.73% | 55.06% | 54.47% | – | – | – | –
CCCCCCCCCCOC(=O)CCCN(CCCCCC(=O)OCC(CCCCCCCC)CCCCCCCC)CCOCCO [YK-124, 2-octyldecyl 6-(4-(decyloxy)-4-oxobutyl)(2-(2-hydroxyethoxy-ethyl)amino)hexanoate] | 14.7% | 216 nm | 81596 RLU | – | 0.04 times | 0.08 times | 0.05 | 0.06 times | 0.06 times | significant difference | 77.56% | 12.56% | 12.89% | 12.30% | – | – | – | –
CCCCCCCCCCOC(=O)CCCN(CCCCCC(=O)OCC(CCCCCCCC)CCCCCCCC)CCOCCOCCO [YK-122, 2-octyldecyl 6-(4-(decyloxy)-4-oxobutyl)(2-(2-(2-hydroxyethoxy)ethoxy-ethyl)amino)hexanoate] | 7.7% | 205 nm | 1418705 RLU | 15.76 | 0.69 times | 1.32 times | 0.92 | 1.02 times | 1.10 times | no significant difference | 79.15% | 10.97% | 11.30% | 10.71% | – | 14.33 | 17.38 | 3.3 times

Second part, led by results:

PDI(%) [3] | Particle size (nm) [3] | SMILES | Relative light unit (RLU) (293T cells [1]) | Multiples (YK-107) (293T cells [1]) | fluorescence absorption value, times that of HHMA (293T cells [1]) | fluorescence absorption value, times that of Lipofectamine 3000 (293T cells [1]) | Ratio relative to SM-102 (293T cells [1]) | Fluc-mRNA expression signal intensity, times that of compound 21 (293T cells [1]) | fluorescence absorption value, times that of compound 23 (293T cells [1]) | difference from SM-102 in Fluc-mRNA fluorescence (GraphPad Prism analysis) (293T cells [1]) | Cell survival rate (%) (293T cells [2]) | cell survival rate lower than that of YK-101 (293T cells [2]) | cell survival rate lower than that of YK-107 (293T cells [2]) | cell survival rate lower than that of YK-108 (293T cells [2]) | cell transfection activity, times that of YK-109 (293T cells [1]) | Multiples (YK-101) (293T cells [1]) | Multiples (YK-108) (293T cells [1]) | cell transfection efficiency, times that of YK-121 (293T cells [1])
21.5% | 179 nm | CCCCCCCCCCOC(=O)CCCCCN(CCO)CCCCCC(=O)OCCC(CCCCCC)CCCCCC [YK-103, 3-hexylnonyl-6-((6-(decyloxy)-6-oxohexyl)(2-hydroxyethyl)amino)hexanoate] | 2312883 RLU | 9.67 | – | – | 1.51 | – | – | no significant difference | 45.25% | 44.87% | 45.20% | 44.61% | 3.2 times | 8.79 | 10.66 | –
18.6% | 109 nm | CCCCCCCCCCOC(=O)CCCN(CCO)CCCCCCOC(=O)CC(CCCCCC)CCCCCC [YK-105] | 1593805 RLU | 14.03 | – | – | 1.04 | – | – | no significant difference | 78.58% | 11.54% | 11.87% | 11.28% | – | 12.76 | 15.47 | –
21.8% | 167 nm | CCCCCCCCCCOC(=O)CCCN(CCCCCC(=O)OCCC(CCCCCC)CCCCCC)C[C@@H](O)CO [YK-115] | 1427501 RLU | 15.66 | 0.70 times | 1.33 times | 0.93 | 1.03 times | 1.11 times | – | 59.07% | 31.05% | 31.38% | 30.79% | – | 14.25 | 17.28 | –
